The text below walks through data of US20260209215A1, “GLYCINE DERIVATIVES WITH P2X4 RECEPTOR-BLOCKING ACTIVITY AS DIAGNOSTICS AND FOR THE TREATMENT OF PAIN, INFLAMMATION, CANCER, AND OTHER P2X4 RECEPTOR-RELATED DISEASES” (RHEINISCHE-FRIEDRICH-WILHELMS-UNIVERSITÄT BONN, priority 2022, published 2026).

The target in this assay is T1, P2X4 receptor (Homo sapiens, UniProt Q99571).
T1 construct: expressed in transfected cells; host or cells: 1321N1 astrocytoma cells, retroviral vector pQCXIN, G418 selection, monoclones
T1 sequence (Q99571 1-388): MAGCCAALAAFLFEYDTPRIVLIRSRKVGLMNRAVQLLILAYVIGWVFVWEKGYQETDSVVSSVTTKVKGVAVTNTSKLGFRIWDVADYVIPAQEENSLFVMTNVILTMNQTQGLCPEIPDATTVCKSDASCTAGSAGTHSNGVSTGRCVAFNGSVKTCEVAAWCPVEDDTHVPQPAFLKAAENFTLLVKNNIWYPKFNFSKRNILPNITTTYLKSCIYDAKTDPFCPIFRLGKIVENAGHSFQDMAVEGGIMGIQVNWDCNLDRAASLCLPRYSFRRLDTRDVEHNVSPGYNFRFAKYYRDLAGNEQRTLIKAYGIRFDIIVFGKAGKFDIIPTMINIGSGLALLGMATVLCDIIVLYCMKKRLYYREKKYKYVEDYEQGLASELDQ
The assay is described as follows: Measurement of Ca2+ influx in transfected 1321N1 astrocytoma cells (P2X4 inhibitory potency). The class given is cell-based. The following applies: agonist-mediated Ca2+ influx, FLUO-4, 1321N1 astrocytoma cells; antagonists added 30 min before agonist. In outline: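 Stable 1321N1 astrocytoma cells expressing human P2X4, loaded with FLUO-4 AM (2.4 μM) in HBSS/HEPES pH 7.3 for 1 h at 23 °C. Antagonists added 30 min before agonist; fluorescence at 520 nm recorded for 30 s. Compounds tested at 7–8 concentrations spanning three log units.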

The term IC50 denotes the concentration that gives 50% inhibition. As to `Cc1noc(-c2ccc(F)c(NCC(=O)N3CCc4c(N)cccc43)c2)n1` [Example 75, 1-(4-aminoindolin-1-yl)-2-((2-fluoro-5-(3-methyl-1,2,4-oxadiazol-5-yl)phenyl)-amino)ethan-1-one], the IC50 was 70 to 99 nM.

`CCc1nsc(-c2ccc(C)c(NCC(=O)N3CCc4c(N5CC(O)C5)cccc43)c2)n1` [Example 66, 2-((5-(3-ethyl-1,2,4-thiadiazol-5-yl)-2-methylphenyl)amino)-1-(4-(3-hydroxyazetidin-1-yl)indolin-1-yl)ethan-1-one] showed an IC50 of 20 to 39 nM.

In the case of `COc1cccc2c1CCN2C(=O)CNc1cc(-c2nc(C)ns2)ccc1C` [Example 1, 1-(4-methoxyindolin-1-yl)-2-((2-methyl-5-(3-methyl-1,2,4-thiadiazol-5-yl)phenyl)-amino)ethan-1-one], the half-maximal inhibitory concentration (IC50) was in the range of 0.1 to 19 nM.

The molecule `CCc1noc(-c2ccc(C)c(NCC(=O)c3cn(C)c4ccccc34)c2)n1` [Example 111, 2-((5-(3-ethyl-1,2,4-oxadiazol-5-yl)-2-methylphenyl)amino)-1-(1-methyl-1H-indol-3-yl)ethan-1-one] registered a half-maximal inhibitory concentration (IC50) of 40 to 69 nM.

`CCc1nsc(-c2ccc(C)c(NCC(=O)N3CCc4c(N5CCNCC5)cccc43)c2)n1` [Example 72, 2-((5-(3-ethyl-1,2,4-thiadiazol-5-yl)-2-methylphenyl)amino)-1-(4-(piperazin-1-yl)indolin-1-yl)ethan-1-one]: the half-inhibitory concentration (IC50) was 20 to 39 nM.

Molecule `Cc1nsc(-c2ccc(C)c(NCC(=O)N3CCc4c3cccc4C3(O)COC3)c2)n1` [Example 55, 1-(4-(3-hydroxyoxetan-3-yl)indolin-1-yl)-2-((2-methyl-5-(3-methyl-1,2,4-thiadiazol-5-yl)phenyl)amino)ethan-1-one] displayed a half-maximal inhibitory concentration (IC50) of 0.1 to 19 nM.

Regarding `Cc1nsc(-c2ccc(C)c(NCC(=O)N3CCc4c(C(O)C(F)(F)F)cccc43)c2)n1` (stereo not shown) [Example 33, 2-((2-methyl-5-(3-methyl-1,2,4-thiadiazol-5-yl)phenyl)amino)-1-(4-(2,2,2-trifluoro-1-hydroxyethyl)indolin-1-yl)ethan-1-one], the IC50 is 20 to 39 nM.

Turning to `Cc1noc(-c2ccc(C)c(NCC(=O)N3CCc4c(N5CCC(O)C5)cccc43)c2)n1` (stereo not shown) [Example 25, 1-(4-(3-hydroxy-pyrrolidin-1-yl)indolin-1-yl)-2-((2-methyl-5-(3-methyl-1,2,4-oxadiazol-5-yl)phenyl)amino)ethan-1-one], the IC50 was in the range of 0.1 to 19 nM.

As to `Cc1ccc(-c2nc(C(F)F)ns2)cc1NCC(=O)N1CCc2c1cccc2C(C)(O)CO` (stereo not shown) [Example 61, 2-((5-(3-(difluoromethyl)-1,2,4-thiadiazol-5-yl)-2-methylphenyl)amino)-1-(4-(1,2-dihydroxypropan-2-yl)indolin-1-yl)ethan-1-one], the 50% inhibitory concentration (IC50) lay within 0.1 to 19 nM.

For the molecule `Cc1noc(-c2ccc(C)c(NCC(=O)N3CCc4c(O)cccc43)c2)n1` [Example 86, 1-(4-hydroxyindolin-1-yl)-2-((2-methyl-5-(3-methyl-1,2,4-oxadiazol-5-yl)phenyl)amino)-ethan-1-one], the IC50 is 40 to 69 nM.

The molecule `Cc1ccc(-c2ccc(C3CC3)cn2)cc1NCC(=O)N1CCc2c(OCC(C)(C)O)cccc21` [Example 114, 2-((5-(5-cyclopropyl-pyridin-2-yl)-2-methyl-phenyl)amino)-1-(4-(2-hydroxy-2-methyl-propoxy)indolin-1-yl) ethan-1-one] displayed an IC50 of 40 to 69 nM.

`Cc1nsc(-c2ccc(C)c(NCC(=O)N3CCc4c3cccc4S(N)(=O)=O)c2)n1` [Example 51, 1-((2-methyl-5-(3-methyl-1,2,4-thiadiazol-5-yl)phenyl)glycyl)-indoline-4-sulfonamide] returned an IC50 of 40 to 69 nM.

For `Cc1nsc(-c2ccc(C)c(NCC(=O)N3CCc4c(OCC(C)(C)O)cccc43)c2)n1` [Example 12, 1-(4-(2-hydroxy-2-methylpropoxy)indolin-1-yl)-2-((2-methyl-5-(3-methyl-1,2,4-thiadiazol-5-yl)phenyl)amino)], the IC50 was in the range of 0.1 to 19 nM.
